Measured values from ChEMBL document CHEMBL1152560, “Substituted 2-arylbenzothiazoles as kinase inhibitors: hit-to-lead optimization” (Bioorg Med Chem, 2009).

Legend:
[1] = biological target: Leukocyte tyrosine kinase receptor (Homo sapiens) (UniProt P29376); assay: Residual activity of LTK at 0.1 uM by microplate scintillation counting
[2] = biological target: Serine/threonine-protein kinase Nek7 (Homo sapiens) (UniProt Q8TDX7); assay: Residual activity of NEK7 at 10 uM by microplate scintillation counting
Sequence of Serine/threonine-protein kinase Nek7 (Homo sapiens) (Q8TDX7 whole entry, looked up): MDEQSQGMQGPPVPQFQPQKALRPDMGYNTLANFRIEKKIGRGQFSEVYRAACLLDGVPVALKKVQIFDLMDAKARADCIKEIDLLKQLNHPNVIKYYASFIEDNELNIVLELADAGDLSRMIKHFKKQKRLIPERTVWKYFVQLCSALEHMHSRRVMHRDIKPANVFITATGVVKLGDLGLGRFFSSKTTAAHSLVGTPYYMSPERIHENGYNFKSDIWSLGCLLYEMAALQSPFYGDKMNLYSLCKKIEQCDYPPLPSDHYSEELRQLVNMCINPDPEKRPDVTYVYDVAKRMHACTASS

[3] = biological target: Protein-tyrosine kinase 6 (Homo sapiens) (UniProt Q13882); assay: Residual activity of BRK at 1 uM by microplate scintillation counting
Sequence of Protein-tyrosine kinase 6 (Homo sapiens) (Q13882 whole entry, looked up): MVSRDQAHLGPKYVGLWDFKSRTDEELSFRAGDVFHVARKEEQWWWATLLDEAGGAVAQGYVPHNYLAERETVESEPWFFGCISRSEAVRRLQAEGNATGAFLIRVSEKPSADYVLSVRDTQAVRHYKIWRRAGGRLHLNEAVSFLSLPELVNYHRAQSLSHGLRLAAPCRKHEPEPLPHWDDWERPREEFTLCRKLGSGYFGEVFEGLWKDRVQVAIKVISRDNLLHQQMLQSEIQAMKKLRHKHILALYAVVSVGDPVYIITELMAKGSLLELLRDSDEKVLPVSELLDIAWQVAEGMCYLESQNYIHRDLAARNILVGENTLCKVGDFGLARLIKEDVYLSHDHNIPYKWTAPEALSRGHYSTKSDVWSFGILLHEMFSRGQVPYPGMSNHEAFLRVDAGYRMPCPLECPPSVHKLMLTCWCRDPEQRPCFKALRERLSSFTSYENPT

[4] = biological target: Ribosomal protein S6 kinase alpha-4 (Homo sapiens) (UniProt O75676); assay: Residual activity of RPS6KA4 at 1 uM by microplate scintillation counting
[5] = biological target: Homeodomain-interacting protein kinase 1 (Homo sapiens) (UniProt Q86Z02); assay: Residual activity of HIPK1 at 0.1 uM by microplate scintillation counting
[6] = biological target: T1, Protein kinase C iota type (Homo sapiens) (UniProt P41743); assay: Residual activity of PKCiota at 0.1 uM by microplate scintillation counting
T1 sequence (whole entry): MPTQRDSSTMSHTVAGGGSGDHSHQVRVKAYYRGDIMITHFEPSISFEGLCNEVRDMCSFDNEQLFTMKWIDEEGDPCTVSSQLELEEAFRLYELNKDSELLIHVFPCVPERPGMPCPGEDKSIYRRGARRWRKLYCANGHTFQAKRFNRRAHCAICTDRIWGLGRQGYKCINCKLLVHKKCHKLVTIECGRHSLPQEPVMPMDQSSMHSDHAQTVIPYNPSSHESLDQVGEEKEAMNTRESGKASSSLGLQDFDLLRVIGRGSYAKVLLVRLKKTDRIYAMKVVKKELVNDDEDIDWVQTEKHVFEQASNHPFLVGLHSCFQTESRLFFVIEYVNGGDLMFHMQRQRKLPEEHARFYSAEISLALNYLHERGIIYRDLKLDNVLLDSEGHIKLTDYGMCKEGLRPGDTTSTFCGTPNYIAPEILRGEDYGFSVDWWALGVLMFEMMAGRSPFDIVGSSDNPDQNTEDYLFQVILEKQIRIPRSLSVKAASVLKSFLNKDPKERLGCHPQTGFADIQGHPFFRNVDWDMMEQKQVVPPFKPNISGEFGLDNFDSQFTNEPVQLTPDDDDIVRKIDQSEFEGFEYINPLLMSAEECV

[7] = biological target: T2, Serine/threonine-protein kinase Chk1 (Homo sapiens) (UniProt O14757); assay: Residual activity of CHK1 at 1 uM by microplate scintillation counting
T2 sequence (whole entry): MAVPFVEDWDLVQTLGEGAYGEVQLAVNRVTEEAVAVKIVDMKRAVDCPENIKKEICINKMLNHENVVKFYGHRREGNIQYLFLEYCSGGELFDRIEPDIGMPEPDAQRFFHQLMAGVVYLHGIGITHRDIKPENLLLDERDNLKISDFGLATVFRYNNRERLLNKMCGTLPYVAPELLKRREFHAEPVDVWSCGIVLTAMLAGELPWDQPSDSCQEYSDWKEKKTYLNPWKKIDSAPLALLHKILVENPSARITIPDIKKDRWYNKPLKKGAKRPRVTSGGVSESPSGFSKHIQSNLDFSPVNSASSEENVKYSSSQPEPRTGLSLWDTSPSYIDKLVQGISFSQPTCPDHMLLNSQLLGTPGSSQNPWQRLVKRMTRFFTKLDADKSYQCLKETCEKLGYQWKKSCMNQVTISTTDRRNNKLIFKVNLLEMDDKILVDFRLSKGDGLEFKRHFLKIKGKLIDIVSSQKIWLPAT

[8] = biological target: Homeodomain-interacting protein kinase 3 (Homo sapiens) (UniProt Q9H422); assay: Residual activity of HIPK3 at 10 uM by microplate scintillation counting
Sequence of Homeodomain-interacting protein kinase 3 (Homo sapiens) (Q9H422 whole entry, looked up): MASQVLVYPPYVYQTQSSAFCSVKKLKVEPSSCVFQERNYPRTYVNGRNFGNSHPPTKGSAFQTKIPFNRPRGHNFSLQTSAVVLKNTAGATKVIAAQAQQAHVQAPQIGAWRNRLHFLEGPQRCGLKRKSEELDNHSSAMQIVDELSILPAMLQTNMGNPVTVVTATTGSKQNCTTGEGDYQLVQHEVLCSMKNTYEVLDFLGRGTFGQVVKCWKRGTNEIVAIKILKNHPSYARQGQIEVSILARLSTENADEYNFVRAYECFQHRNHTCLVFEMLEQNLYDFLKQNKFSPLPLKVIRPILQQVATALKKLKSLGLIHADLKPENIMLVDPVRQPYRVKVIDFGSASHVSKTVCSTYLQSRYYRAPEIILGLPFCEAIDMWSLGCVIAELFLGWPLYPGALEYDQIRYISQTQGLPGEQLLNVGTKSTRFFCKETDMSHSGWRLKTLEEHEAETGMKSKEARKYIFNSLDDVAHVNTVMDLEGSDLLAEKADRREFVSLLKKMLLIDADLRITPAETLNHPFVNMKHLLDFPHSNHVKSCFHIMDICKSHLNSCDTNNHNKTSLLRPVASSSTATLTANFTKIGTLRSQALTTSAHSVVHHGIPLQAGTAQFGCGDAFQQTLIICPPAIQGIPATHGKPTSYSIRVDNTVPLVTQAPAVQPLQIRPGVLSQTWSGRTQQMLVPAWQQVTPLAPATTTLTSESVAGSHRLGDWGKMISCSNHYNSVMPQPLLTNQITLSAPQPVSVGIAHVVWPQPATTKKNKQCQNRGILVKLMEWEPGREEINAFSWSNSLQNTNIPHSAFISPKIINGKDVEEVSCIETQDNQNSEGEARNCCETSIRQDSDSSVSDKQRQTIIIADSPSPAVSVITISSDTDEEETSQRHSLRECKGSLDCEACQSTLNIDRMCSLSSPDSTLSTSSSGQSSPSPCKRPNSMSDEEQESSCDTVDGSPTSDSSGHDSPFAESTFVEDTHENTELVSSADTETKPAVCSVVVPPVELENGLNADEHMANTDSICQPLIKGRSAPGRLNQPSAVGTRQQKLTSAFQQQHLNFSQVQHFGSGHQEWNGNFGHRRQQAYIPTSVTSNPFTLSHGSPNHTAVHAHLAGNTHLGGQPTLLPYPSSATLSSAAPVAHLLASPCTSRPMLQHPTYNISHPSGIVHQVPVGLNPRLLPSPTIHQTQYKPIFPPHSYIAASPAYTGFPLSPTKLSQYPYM

[9] = biological target: Ephrin type-A receptor 7 (Homo sapiens) (UniProt Q15375); assay: Residual activity of EPHA7 at 0.1 uM by microplate scintillation counting
Sequence of Ephrin type-A receptor 7 (Homo sapiens) (Q15375 28-998 limits assumed): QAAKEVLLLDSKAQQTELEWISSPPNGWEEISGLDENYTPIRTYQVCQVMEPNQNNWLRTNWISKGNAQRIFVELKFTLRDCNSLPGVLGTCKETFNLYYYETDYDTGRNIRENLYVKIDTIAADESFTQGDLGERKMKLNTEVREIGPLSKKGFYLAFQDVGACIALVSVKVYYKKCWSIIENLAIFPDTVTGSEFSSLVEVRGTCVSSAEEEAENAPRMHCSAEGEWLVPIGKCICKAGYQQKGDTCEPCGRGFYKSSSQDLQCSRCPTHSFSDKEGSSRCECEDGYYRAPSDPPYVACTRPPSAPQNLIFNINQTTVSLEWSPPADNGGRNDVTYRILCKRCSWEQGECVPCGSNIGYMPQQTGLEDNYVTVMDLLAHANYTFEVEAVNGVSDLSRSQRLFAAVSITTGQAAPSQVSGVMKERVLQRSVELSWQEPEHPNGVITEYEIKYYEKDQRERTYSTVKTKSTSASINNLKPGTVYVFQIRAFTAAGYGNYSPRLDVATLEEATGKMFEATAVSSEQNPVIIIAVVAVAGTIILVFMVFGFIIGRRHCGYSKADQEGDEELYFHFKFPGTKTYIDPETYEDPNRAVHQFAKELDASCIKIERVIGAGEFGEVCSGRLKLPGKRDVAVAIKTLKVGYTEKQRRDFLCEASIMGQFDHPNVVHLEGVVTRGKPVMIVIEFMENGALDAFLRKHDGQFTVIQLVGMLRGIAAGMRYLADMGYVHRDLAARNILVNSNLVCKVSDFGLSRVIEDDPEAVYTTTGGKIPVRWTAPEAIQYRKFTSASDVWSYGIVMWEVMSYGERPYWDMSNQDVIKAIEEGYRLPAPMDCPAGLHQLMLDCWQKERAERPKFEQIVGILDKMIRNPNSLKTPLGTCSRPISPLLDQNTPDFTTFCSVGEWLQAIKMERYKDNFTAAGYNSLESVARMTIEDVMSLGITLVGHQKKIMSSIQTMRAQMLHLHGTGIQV

[10] = biological target: Serine/threonine-protein kinase WNK2 (Homo sapiens) (UniProt Q9Y3S1); assay: Residual activity of WNK2 at 1 uM by microplate scintillation counting
[11] = biological target: Serine/threonine-protein kinase 16 (Homo sapiens) (UniProt O75716); assay: Residual activity of TSF1 at 10 uM by microplate scintillation counting
[12] = biological target: Serine/threonine-protein kinase B-raf (Homo sapiens) (UniProt P15056); assay: Residual activity of Wild type B-RAF at 0.1 uM by microplate scintillation counting
Sequence of Serine/threonine-protein kinase B-raf (Homo sapiens) (P15056 whole entry): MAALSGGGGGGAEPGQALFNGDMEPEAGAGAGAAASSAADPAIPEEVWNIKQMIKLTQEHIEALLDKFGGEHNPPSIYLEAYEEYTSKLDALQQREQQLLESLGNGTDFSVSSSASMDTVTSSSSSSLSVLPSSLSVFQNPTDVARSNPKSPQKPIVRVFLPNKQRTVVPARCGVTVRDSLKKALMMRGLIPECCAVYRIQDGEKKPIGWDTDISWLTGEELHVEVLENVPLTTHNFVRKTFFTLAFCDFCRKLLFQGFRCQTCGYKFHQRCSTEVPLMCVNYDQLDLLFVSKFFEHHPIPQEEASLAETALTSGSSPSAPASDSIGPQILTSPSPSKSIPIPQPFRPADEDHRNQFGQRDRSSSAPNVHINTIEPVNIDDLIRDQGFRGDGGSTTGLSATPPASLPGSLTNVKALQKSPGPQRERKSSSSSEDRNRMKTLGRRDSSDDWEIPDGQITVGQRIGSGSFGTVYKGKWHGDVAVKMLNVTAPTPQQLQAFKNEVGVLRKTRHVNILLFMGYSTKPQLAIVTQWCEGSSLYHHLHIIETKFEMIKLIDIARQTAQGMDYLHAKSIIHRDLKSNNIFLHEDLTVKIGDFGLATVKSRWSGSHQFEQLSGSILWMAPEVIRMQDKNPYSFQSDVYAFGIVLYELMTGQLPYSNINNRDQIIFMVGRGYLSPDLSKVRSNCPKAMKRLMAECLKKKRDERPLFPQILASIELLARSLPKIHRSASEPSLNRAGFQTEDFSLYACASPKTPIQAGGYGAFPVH

[13] = biological target: Rho-associated protein kinase 1 (Homo sapiens) (UniProt Q13464); assay: Residual activity of ROCK1 at 1 uM by microplate scintillation counting
[14] = biological target: Tyrosine-protein kinase Lck (Homo sapiens) (UniProt P06239); assay: Residual activity of LCK at 1 uM by microplate scintillation counting
Sequence of Tyrosine-protein kinase Lck (Homo sapiens) (P06239 2-509 limits assumed): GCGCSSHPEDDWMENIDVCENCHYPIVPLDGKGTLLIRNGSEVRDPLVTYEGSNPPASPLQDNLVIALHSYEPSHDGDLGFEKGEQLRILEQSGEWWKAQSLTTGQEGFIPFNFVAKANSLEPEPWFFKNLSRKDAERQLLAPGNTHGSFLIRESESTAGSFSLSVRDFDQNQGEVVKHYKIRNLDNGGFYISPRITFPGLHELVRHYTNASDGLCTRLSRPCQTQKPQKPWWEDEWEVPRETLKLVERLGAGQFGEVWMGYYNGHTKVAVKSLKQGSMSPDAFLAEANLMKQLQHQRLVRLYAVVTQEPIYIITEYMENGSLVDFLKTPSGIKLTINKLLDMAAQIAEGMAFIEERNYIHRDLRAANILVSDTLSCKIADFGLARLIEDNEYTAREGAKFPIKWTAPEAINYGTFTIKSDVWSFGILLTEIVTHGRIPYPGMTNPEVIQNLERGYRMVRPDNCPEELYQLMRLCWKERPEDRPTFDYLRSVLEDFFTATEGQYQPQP

[15] = biological target: T3, Activin receptor type-1 (Homo sapiens) (UniProt Q04771); assay: Residual activity of ACV-R1 at 10 uM by microplate scintillation counting
T3 sequence (whole entry): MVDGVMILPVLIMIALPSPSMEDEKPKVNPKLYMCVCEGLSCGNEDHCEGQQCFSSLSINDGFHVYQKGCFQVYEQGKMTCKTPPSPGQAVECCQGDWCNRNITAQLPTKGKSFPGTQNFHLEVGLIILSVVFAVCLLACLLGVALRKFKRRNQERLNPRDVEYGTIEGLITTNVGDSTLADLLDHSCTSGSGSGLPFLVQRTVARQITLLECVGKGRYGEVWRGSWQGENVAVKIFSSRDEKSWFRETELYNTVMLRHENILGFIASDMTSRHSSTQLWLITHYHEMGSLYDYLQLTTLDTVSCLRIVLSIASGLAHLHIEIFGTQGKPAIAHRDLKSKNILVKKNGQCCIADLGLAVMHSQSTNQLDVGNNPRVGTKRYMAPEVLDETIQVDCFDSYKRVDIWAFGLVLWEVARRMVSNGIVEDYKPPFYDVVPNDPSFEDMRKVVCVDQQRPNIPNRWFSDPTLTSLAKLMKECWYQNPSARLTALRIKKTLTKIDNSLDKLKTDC

Sequence of Leukocyte tyrosine kinase receptor (Homo sapiens) (P29376 whole entry): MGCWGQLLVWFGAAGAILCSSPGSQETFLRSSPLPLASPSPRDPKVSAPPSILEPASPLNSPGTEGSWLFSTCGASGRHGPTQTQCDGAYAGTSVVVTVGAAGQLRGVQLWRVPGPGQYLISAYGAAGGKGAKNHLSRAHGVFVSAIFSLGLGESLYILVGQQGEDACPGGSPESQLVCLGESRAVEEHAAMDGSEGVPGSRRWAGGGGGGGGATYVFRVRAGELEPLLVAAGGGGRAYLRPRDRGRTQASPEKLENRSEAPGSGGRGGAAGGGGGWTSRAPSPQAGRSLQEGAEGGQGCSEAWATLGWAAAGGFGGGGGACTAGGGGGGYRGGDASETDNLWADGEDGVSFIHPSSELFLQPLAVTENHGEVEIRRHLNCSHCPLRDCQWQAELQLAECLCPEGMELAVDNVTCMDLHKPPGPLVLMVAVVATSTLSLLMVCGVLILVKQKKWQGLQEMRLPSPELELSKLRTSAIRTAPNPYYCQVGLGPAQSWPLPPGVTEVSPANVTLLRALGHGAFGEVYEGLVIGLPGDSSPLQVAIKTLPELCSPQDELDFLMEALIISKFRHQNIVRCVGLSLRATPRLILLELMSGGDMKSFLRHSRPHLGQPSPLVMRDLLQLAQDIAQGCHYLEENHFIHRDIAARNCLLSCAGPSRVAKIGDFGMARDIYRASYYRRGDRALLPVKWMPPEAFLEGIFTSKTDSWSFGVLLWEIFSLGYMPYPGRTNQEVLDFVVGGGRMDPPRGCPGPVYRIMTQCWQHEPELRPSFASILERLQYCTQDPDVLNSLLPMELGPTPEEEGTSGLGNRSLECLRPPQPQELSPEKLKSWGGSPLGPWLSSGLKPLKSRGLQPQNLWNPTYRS

Row | residual activity [1] | residual activity [2] | residual activity [3] | residual activity [4] | residual activity [5] | residual activity [6] | residual activity [7] | residual activity [8] | residual activity [9] | residual activity [10] | residual activity [11] | residual activity [12] | residual activity [13] | residual activity [14] | residual activity [15] | Compound
1 | 99% | 224% | 8% | 86% | 83% | 102% | 83% | 147% | 111% | 34% | 56% | 98% | 93% | 64% | 81% | COc1cc2c(Oc3ccc(-c4nc5ccccc5s4)cc3)ncnc2cc1OCCCN1CCCC1
2 | 82% | 254% | 7% | 86% | 99% | 105% | 103% | 132% | 88% | 25% | 66% | 90% | 102% | 46% | 87% | COc1cc2c(Oc3ccc(-c4nc5ccccc5s4)cc3)ncnc2cc1OCCCN1CCN(C)CC1
3 | 101% | 239% | 4% | 87% | 85% | 87% | 102% | 142% | 103% | 53% | 59% | 95% | 105% | 50% | 96% | COc1cc2c(Oc3ccc(-c4nc5ccccc5s4)cc3F)ncnc2cc1OCCCN1CCN(C)CC1
